Source: PubChem BioAssay AID1963850 (Molecular Pharmacology Branch, DTP, NCI, 2024)

Tested on: 192522-019-R-J2-PDC complex tumor spheroid viability
Experiment: Anticancer human tumor 192522-019-R-J2-PDC patient-derived colon adenocarcinoma cell line growth inhibition [POLQ]
Conditions: for IC50: curve of first compound; for viability, T/C: stronger effect = lower value
Summary of the method: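 PDC + HUVEC + MSC complex spheroids; POLQ inhibitors ± partner drugs; top conc. at/near clinical Cmax, else 10 microM (SN-38 1 microM), half-log dilutions; 37 degrees C, 5% CO2.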

[1] = second compound 0.0316 µM, first compound 0.00316 µM
[2] = second compound 0.0316 µM, first compound 0.01 µM
[3] = second compound 0.0316 µM, first compound 0.0316 µM
[4] = second compound 0.0316 µM, first compound 0.1 µM
[5] = second compound 0.0316 µM, first compound 0.316 µM
[6] = second compound 0.0316 µM, first compound 1 µM
[7] = second compound 0.1 µM, first compound 0.00316 µM
[8] = second compound 0.1 µM, first compound 0.01 µM
[9] = second compound 0.1 µM, first compound 0.0316 µM
[10] = second compound 0.1 µM, first compound 0.1 µM
[11] = second compound 0.1 µM, first compound 0.316 µM
[12] = second compound 0.1 µM, first compound 1 µM
[13] = second compound 0.316 µM, first compound 0.00316 µM
[14] = second compound 0.316 µM, first compound 0.01 µM
[15] = second compound 0.316 µM, first compound 0.0316 µM
[16] = second compound 0.316 µM, first compound 0.1 µM
[17] = second compound 0.316 µM, first compound 0.316 µM
[18] = second compound 0.316 µM, first compound 1 µM
[19] = second compound 1 µM, first compound 0.00316 µM
[20] = second compound 1 µM, first compound 0.01 µM
[21] = second compound 1 µM, first compound 0.0316 µM
[22] = second compound 1 µM, first compound 0.1 µM
[23] = second compound 1 µM, first compound 0.316 µM
[24] = second compound 1 µM, first compound 1 µM
[25] = second compound 3.16 µM, first compound 0.00316 µM
[26] = second compound 3.16 µM, first compound 0.01 µM
[27] = second compound 3.16 µM, first compound 0.0316 µM
[28] = second compound 3.16 µM, first compound 0.1 µM
[29] = second compound 3.16 µM, first compound 0.316 µM
[30] = second compound 3.16 µM, first compound 1 µM
[31] = second compound 10 µM, first compound 0.00316 µM
[32] = second compound 10 µM, first compound 0.01 µM
[33] = second compound 10 µM, first compound 0.0316 µM
[34] = second compound 10 µM, first compound 0.1 µM
[35] = second compound 10 µM, first compound 0.316 µM
[36] = second compound 10 µM, first compound 1 µM
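Further: spheroids exposed to drugs for seven days before reading.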
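Wherever viability, T/C is given: 100% = DMSO vehicle control viability in luminescence.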

`C=CCn1c(=O)c2cnc(Nc3ccc(N4CCN(C)CC4)cc3)nc2n1-c1cccc(C(C)(C)O)n1` + COC1C(OC(N)=O)C(O)C(Oc2ccc3c(O)c(NC(=O)c4ccc(O)c(CC=C(C)C)c4)c(=O)oc3c2C)OC1(C)C showed an IC50 (second compound 0.0316 µM) of 0.664 µM, an IC50 (second compound 0.1 µM) of 0.675 µM and an IC50 (second compound 0.316 µM) of 0.656 µM. The IC50 (second compound 1 µM) was 0.704 µM, the IC50 (second compound 3.16 µM) was 0.737 µM and the IC50 (second compound 10 µM) was 0.761 µM. It also gave a viability, T/C [1] of 108%, a viability, T/C [2] of 87.3% and a viability, T/C [3] of 98.5%. The viability, T/C [4] was 93.9%, the viability, T/C [5] was 89.2% and the viability, T/C [6] was 28.2%. For the same compound, the viability, T/C [7] was 101%, the viability, T/C [8] was 93.8% and the viability, T/C [9] was 98%. It also gave a viability, T/C [10] of 90.3%, a viability, T/C [11] of 82.2% and a viability, T/C [12] of 33.7%. It also gave a viability, T/C [13] of 98.6%, a viability, T/C [14] of 91.6% and a viability, T/C [15] of 99.4%. For the same compound, the viability, T/C [16] was 105%, the viability, T/C [17] was 74.5% and the viability, T/C [18] was 35.9%. It also gave a viability, T/C [19] of 95.4%, a viability, T/C [20] of 96.1% and a viability, T/C [21] of 103%. It also gave a viability, T/C [22] of 106%, a viability, T/C [23] of 84.3% and a viability, T/C [24] of 34.9%. The viability, T/C [25] was 92.6%, the viability, T/C [26] was 95.4% and the viability, T/C [27] was 90.7%. For the same compound, the viability, T/C [28] was 93.5%, the viability, T/C [29] was 88% and the viability, T/C [30] was 36.2%. It also gave a viability, T/C [31] of 98.3%, a viability, T/C [32] of 97.3% and a viability, T/C [33] of 102%. For the same compound, the viability, T/C [34] was 90%, the viability, T/C [35] was 96.2% and the viability, T/C [36] was 35.7%.
Compound `C=CCn1c(=O)c2cnc(Nc3ccc(N4CCN(C)CC4)cc3)nc2n1-c1cccc(C(C)(C)O)n1` + Cc1cccc(N(C)C(=O)C2C(O)CCN2c2nc(C)cc(C(F)(F)F)c2C#N)c1 has an IC50 (second compound 0.0316 µM) of 0.796 µM, an IC50 (second compound 0.1 µM) of 0.812 µM and an IC50 (second compound 0.316 µM) of 0.893 µM. The IC50 (second compound 1 µM) was > 1 µM, the IC50 (second compound 3.16 µM) was > 1 µM and the IC50 (second compound 10 µM) was 0.916 µM. The viability, T/C [1] was 98.9%, the viability, T/C [2] was 106% and the viability, T/C [3] was 102%. It also gave a viability, T/C [4] of 108%, a viability, T/C [5] of 92.6% and a viability, T/C [6] of 39.5%. It also gave a viability, T/C [7] of 99.7%, a viability, T/C [8] of 99.3% and a viability, T/C [9] of 102%. The viability, T/C [10] was 106%, the viability, T/C [11] was 90% and the viability, T/C [12] was 40.4%. It also gave a viability, T/C [13] of 111%, a viability, T/C [14] of 110% and a viability, T/C [15] of 105%. The viability, T/C [16] was 110%, the viability, T/C [17] was 98.6% and the viability, T/C [18] was 44.4%. The viability, T/C [19] was 112%, the viability, T/C [20] was 95.2% and the viability, T/C [21] was 107%. It also gave a viability, T/C [22] of 109%, a viability, T/C [23] of 105% and a viability, T/C [24] of 50.4%. The viability, T/C [25] was 116%, the viability, T/C [26] was 110% and the viability, T/C [27] was 109%. For the same compound, the viability, T/C [28] was 106%, the viability, T/C [29] was 89% and the viability, T/C [30] was 56.9%. It also gave a viability, T/C [31] of 109%, a viability, T/C [32] of 115% and a viability, T/C [33] of 119%. The viability, T/C [34] was 105%, the viability, T/C [35] was 102% and the viability, T/C [36] was 45.6%.
In the case of `O=c1[nH]cc(F)c(=O)[nH]1` + Cc1cccc(N(C)C(=O)C2C(O)CCN2c2nc(C)cc(C(F)(F)F)c2C#N)c1, the IC50 (second compound 0.0316 µM) is reported as > 10 µM, the IC50 (second compound 0.1 µM) is reported as > 10 µM and the IC50 (second compound 0.316 µM) is reported as > 10 µM. For the same compound, the IC50 (second compound 1 µM) was > 10 µM, the IC50 (second compound 3.16 µM) was > 10 µM and the IC50 (second compound 10 µM) was > 10 µM. The viability, T/C [3] was 111%, the viability, T/C [4] was 88.5% and the viability, T/C [5] was 76.8%. The viability, T/C [6] was 87.2%, the viability, T/C (second compound 0.0316 µM, first compound 3.16 µM) was 91.3% and the viability, T/C (second compound 0.0316 µM, first compound 10 µM) was 72.4%. For the same compound, the viability, T/C [9] was 103%, the viability, T/C [10] was 92.8% and the viability, T/C [11] was 84.6%. The viability, T/C [12] was 81.7%, the viability, T/C (second compound 0.1 µM, first compound 3.16 µM) was 81% and the viability, T/C (second compound 0.1 µM, first compound 10 µM) was 85.3%. The viability, T/C [15] was 95.5%, the viability, T/C [16] was 95.9% and the viability, T/C [17] was 85%. For the same compound, the viability, T/C [18] was 80.7%, the viability, T/C (second compound 0.316 µM, first compound 3.16 µM) was 78% and the viability, T/C (second compound 0.316 µM, first compound 10 µM) was 86.1%. For the same compound, the viability, T/C [21] was 96.8%, the viability, T/C [22] was 92.9% and the viability, T/C [23] was 87.1%. It also gave a viability, T/C [24] of 96.1%, a viability, T/C (second compound 1 µM, first compound 3.16 µM) of 89% and a viability, T/C (second compound 1 µM, first compound 10 µM) of 82.9%. The viability, T/C [27] was 112%, the viability, T/C [28] was 88.9% and the viability, T/C [29] was 87.1%. It also gave a viability, T/C [30] of 81.4%, a viability, T/C (second compound 3.16 µM, first compound 3.16 µM) of 93.1% and a viability, T/C (second compound 3.16 µM, first compound 10 µM) of 78.6%. It also gave a viability, T/C [33] of 106%, a viability, T/C [34] of 89.1% and a viability, T/C [35] of 81.6%. The viability, T/C [36] was 83.6%, the viability, T/C (second compound 10 µM, first compound 3.16 µM) was 88.3% and the viability, T/C (second compound 10 µM, first compound 10 µM) was 75.9%.
